Literature values, collected in PMC3171802 (Chemistry & biology, 2011).

System: Ba/F3 cells transformed to IL-3 independence by overexpression of PIM1 or PIM2
Conditions: ref Pogacic et al., 2007

In the case of CC(=O)c1cccc(-c2cnc3ccc(NCC4CC4)nn23)c1 [Compound K00135], the “survival of Ba/F3 cells transformed by PIM1 or PIM2” value is listed as “significantly impaired survival”.
